# Laboratory results reported in PMC9884808, “Pharmacokinetics, tissue distribution, and antitumor activity of a novel compound, NY-2, in non-small cell lung cancer” (Frontiers in Pharmacology, 2023).
# Where two headings read alike, the source gives them in different places. Marks after values point to notes of the source that are not given here.
# Tests used:
# HCT116 = experiment: MTT cell viability assay; format: cell-based, human; parameters: key to IC50 HCT116: -: poor activity, cannot be unified; conditions: for IC50 HCT116: HCT116 colorectal cancer cells; for IC50: Homo sapiens, HCT-116, HCT116 colorectal cancer cells
# Description: (§1) The human colorectal cancer cell lines, HCT116 and LoVo, the breast cancer cell line, T47D, the hepatocellular carcinoma cell line, HepG2, the normal human liver cell line, HL7702, human umbilical vein endothelial cells (HUVECs), and the non-small cell lung cancer cell lines, A549, H1993, HCC827, H460, were purchased from the American Type Culture Collection (Manassas, VA, United States). Cell lines were cultured in the recommended RPMI-1640 medium (AE24464298, Hyclone, United States) and DMEM medium (AE29422278, Hyclone, United States) supplemented with 10% fetal bovine serum (FBS; JC63470, FB15015, Clark, United States) with 1% penicillin-streptomycin. Cells were maintained in an incubator at 37°C with 5% CO2 (HF90,Sanyo, Japan) and passaged every 48–72 h, after detaching with 0.25% trypsin (Sigma, United States). The compounds ZLDI-8 and NY-1 to -15 were synthesized in the laboratory of Dr. Huaiwei Ding in Shenyang Pharmaceutical University, and verified by high-performance liquid chromatography (purity >95%) for use in experiments (Supplementary Figure S1). Paclitaxel was purchased from MedChemExpress (HY-B0015, 99.97% purity, United States).
# (§2) Cell viability was measured by the MTT assay. HCT116, HL7702, A549, H1993, HCC827, and H460 cells were dispensed into 96-well plates at a density of 1 × 10^5 cells/mL. After 24–48 h incubation, cells were treated with the compounds at different concentrations for the indicated periods. An assay kit (WLA073, Wanlei Co., Liaoning, China), was used according to the manufacturer’s instructions to measure LDH activity, The absorbance at 450 nm was measured with a microplate reader (Elx-800, Bio-Rad, China).
# (§3) The preliminary antitumor activity of the series of ZLDI-8 derivatives, NY-1 to -15 was screened by the MTT cell viability assay. […] The antitumor activity of NY-2 on HCT116 cells was concentration- and time-dependent, and slightly better than that of the original compound, ZLDI-8.
# HepG2 = experiment: MTT cell viability assay; format: cell-based, human; parameters: key to IC50 HepG2: -: poor activity, cannot be unified; conditions: HepG2 hepatocellular carcinoma cells; for IC50: Homo sapiens
# Description: as §1, §2, §3
# LoVo = experiment: MTT cell viability assay; format: cell-based, human; parameters: key to IC50 LoVo: -: poor activity, cannot be unified; conditions: LoVo colorectal cancer cells; for IC50: Homo sapiens
# Description: as §1, §2, §3
# T47D = experiment: MTT cell viability assay; format: cell-based, human; parameters: key to IC50 T47D: -: poor activity, cannot be unified; conditions: T47D breast cancer cells; for IC50: Homo sapiens
# Description: as §1, §2, §3
# A549 cells = conditions: 28 days, NY-2 6 mg/kg, paclitaxel 1 mg/kg; for Lung metastasis of nude mice, number of mice (%): six mice per group, model 5 mice (83.3%)
# Description: The experimental groups included the normal (no tumor cells, vehicle) group, the model (tumor cells, vehicle) group, NY-2-treated, and paclitaxel-treated groups, with six mice in each group. After 7 days for adaptation, 200 µL of A549 cells (2× 10^6 cells/mice) in serum-free medium were injected into the tail vein except for those in the normal group. Drug or vehicle administration via tail vein was started on the next day. The normal group and model group were given the same amount of sterile water containing 1% DMSO and 1% Tween as vehicle control. […] Injections were done every other day. The general conditions of the nude mice, with regard to activity and food ingestion, were observed every day, and their body weight was measured every other day.
# KM mice were treated with ZLDI-8 or NY-2 by tail vein injection (6 mg/kg) for 7 days, then the mice were euthanized and liver and kidney tissues were removed and sectioned. For the experiment with BALB/c nude mice, the tail vein injections of NY-2 (6 mg/kg) were continued for 28 days, and the lungs, tumor, heart, liver, and kidney were removed. […] Sections for staining were dewaxed with xylene and then rehydrated, and hematoxylin-eosin staining was performed, after which the sections were again dehydrated in ethanol and cleared with xylene before being mounted on a slide, cover-slipped and examined microscopically. The remainder of the tumors and tissues was frozen in liquid nitrogen for other studies.
smiles,measurement,setting,value
Cc1ccc(OCCn2c(C)c(C=C3C(=O)NC(=O)NC3=O)c3ccccc32)c(C)c1 [NY-1],IC50 HCT116,HCT116,-
same,IC50,HepG2,26.2 µM
same,IC50 LoVo,LoVo,-
same,IC50 T47D,T47D,-
Cc1c(C=C2C(=O)NC(=O)NC2=O)c2ccccc2n1CCOc1ccc(F)cc1 [NY-3],IC50,HCT116,43.7 µM
same,IC50 HepG2,HepG2,-
same,IC50,LoVo,21.4 µM
same,IC50 T47D,T47D,-
Cc1c(C=C2C(=O)NC(=S)NC2=O)c2ccccc2n1CCOc1cccc(F)c1 [NY-4],IC50,HCT116,27.5 µM
same,IC50 HepG2,HepG2,-
same,IC50,LoVo,41.8 µM
same,IC50,T47D,25.4 µM
Cc1c(C=C2C(=O)NC(=O)NC2=O)c2ccccc2n1CCOc1cccc(F)c1 [NY-5],IC50,HCT116,11.4 µM
same,IC50,HepG2,37.2 µM
same,IC50,LoVo,23.5 µM
same,IC50,T47D,34 µM
O=C1NC(=O)C(=Cc2cn(CCOc3cccc(F)c3)c3ccccc23)C(=O)N1 [NY-6],IC50,HCT116,38.8 µM
same,IC50,HepG2,40.8 µM
same,IC50,LoVo,28.7 µM
same,IC50,T47D,53.7 µM
Cc1c(C=C2C(=O)NC(=S)NC2=O)c2ccccc2n1CCOc1cccc(C(F)(F)F)c1 [NY-7],IC50,HCT116,12.5 µM
same,IC50,HepG2,77.4 µM
same,IC50,LoVo,20.6 µM
same,IC50,T47D,21.8 µM
Cc1c(C=C2C(=O)NC(=O)NC2=O)c2ccccc2n1CCOc1cccc(C(F)(F)F)c1 [NY-8],IC50 HCT116,HCT116,-
same,IC50 HepG2,HepG2,-
same,IC50,LoVo,38.1 µM
same,IC50,T47D,10.3 µM
O=C1NC(=O)C(=Cc2cn(CCOc3cccc(C(F)(F)F)c3)c3ccccc23)C(=O)N1 [NY-9],IC50,HCT116,35.3 µM
same,IC50,HepG2,85.2 µM
same,IC50 LoVo,LoVo,-
same,IC50 T47D,T47D,-
Cc1c(C=C2C(=O)NC(=S)NC2=O)c2ccccc2n1CCOc1ccc(Cl)cc1Cl [NY-10],IC50,HCT116,26 µM
same,IC50,HepG2,66.7 µM
same,IC50,LoVo,86.4 µM
same,IC50,T47D,23.3 µM
Cc1c(C=C2C(=O)NC(=O)NC2=O)c2ccccc2n1CCOc1ccc(Cl)cc1Cl [NY-11],IC50 HCT116,HCT116,-
same,IC50,HepG2,90.1 µM
same,IC50,LoVo,23.2 µM
same,IC50,T47D,16.6 µM
O=C1NC(=O)C(=Cc2cn(CCOc3ccc(Cl)cc3Cl)c3ccccc23)C(=O)N1 [NY-12],IC50,HCT116,20 µM
same,IC50 HepG2,HepG2,-
same,IC50 LoVo,LoVo,-
same,IC50,T47D,40.4 µM
Cc1c(C=C2C(=O)NC(=S)NC2=O)c2ccccc2n1CCOc1cccc2ccccc12 [NY-13],IC50,HCT116,12.8 µM
same,IC50,HepG2,33.1 µM
same,IC50,LoVo,43.2 µM
same,IC50,T47D,5.15 µM
Cc1c(C=C2C(=O)NC(=O)NC2=O)c2ccccc2n1CCOc1cccc2ccccc12 [NY-14],IC50 HCT116,HCT116,-
same,IC50 HepG2,HepG2,-
same,IC50 LoVo,LoVo,-
same,IC50,T47D,74.3 µM
O=C1NC(=O)C(=Cc2cn(CCOc3cccc4ccccc34)c3ccccc23)C(=O)N1 [NY-15],IC50,HCT116,11.3 µM
same,IC50,HepG2,13.5 µM
same,IC50,LoVo,124 µM
same,IC50,T47D,21.4 µM
"CC(=O)O[C@H]1C(=O)[C@@]2(C)[C@H]([C@H](OC(=O)c3ccccc3)[C@]3(O)C[C@H](OC(=O)[C@H](O)[C@@H](NC(=O)c4ccccc4)c4ccccc4)C(C)=C1C3(C)C)[C@]1(OC(C)=O)CO[C@@H]1C[C@@H]2O [Paclitaxel, reference compound]",Body weight before dissection,"A549 cells; nude mice with A549 lung metastasis, tail vein every other day, n=6, mean ± SEM",22.72 ± 0.32 g
same,Kidney as a proportion of body weight,"A549 cells; nude mice, n=6, mean ± SEM",1.74 ± 0.03 10^-2
same,Liver as a proportion of body weight,"A549 cells; nude mice, n=6, mean ± SEM",5.45 ± 0.20# 10^-2
same,Lung as a proportion of body weight,"A549 cells; nude mice, n=6, mean ± SEM",0.64 ± 0.02 10^-2
same,Quality of the heart,"A549 cells; nude mice, n=6, mean ± SEM",0.14 ± 0.01 g
same,Quality of the kidney,"A549 cells; nude mice, n=6, mean ± SEM",0.41 ± 0.01 g
same,Quality of the liver,"A549 cells; nude mice, n=6, mean ± SEM",1.29 ± 0.06 g
same,Quality of the lung,"A549 cells; nude mice, n=6, mean ± SEM",0.15 ± 0.01 g
same,infiltration of A549 cells in the lung tissue (H&E),A549 cells; nude mice,no infiltration of A549 cells in the lung tissue
same,"Lung metastasis of nude mice, number of mice (%)",A549 cells,0 (0)
same,"Lung metastasis of nude mice, number of mice (%)",A549 cells; listed as paclitaxel,No metastatic tumors were found
